Results from patent US20220088016A1, “CANCER TREATMENT USING MULTI-TARGETED KINASE INHIBITOR IN COMBINATION OF PROTEIN KINASE BIOMARKERS” (ZHEJIANG CROWNMAB BIOTECH CO. LTD., priority 2019, published 2022).

Experiments:
Assay in all cases: Kinase profiling
Type in all cases: binding
Conditions in all cases: read-out: % Ctrl @ 1000 nM
[1] = molecular target: ABL1 (T315I)-nonphosphorylated (Homo sapiens, UniProt P00519, T315I)
[2] = molecular target: ACVR1 (Homo sapiens, UniProt Q04771)
[3] = molecular target: AKT2 (Homo sapiens, UniProt P31751)
[4] = molecular target: ANKK1 (Homo sapiens, UniProt Q8NFD2)
[5] = molecular target: AURKA (Homo sapiens, UniProt O14965)
[6] = molecular target: BIKE (Homo sapiens, UniProt Q9NSY1)
[7] = molecular target: CAMK2D (Homo sapiens, UniProt Q13557)
[8] = molecular target: CDK3 (Homo sapiens, UniProt Q00526)
[9] = molecular target: CDK8 (Homo sapiens, UniProt P49336)
[10] = molecular target: CDKL5 (Homo sapiens, UniProt O76039)
[11] = molecular target: CLK4 (Homo sapiens, UniProt Q9HAZ1)
[12] = molecular target: CSNK1G1 (Homo sapiens, UniProt Q9HCP0)
[13] = molecular target: DDR1 (Homo sapiens, UniProt Q08345)
[14] = molecular target: DRAK1 (Homo sapiens, UniProt Q9UEE5)
[15] = molecular target: EPHB2 (Homo sapiens, UniProt P29323)
[16] = molecular target: EPHB6 (Homo sapiens, UniProt O15197)
[17] = molecular target: FLT4 (Homo sapiens, UniProt P35916)
[18] = molecular target: GRK4 (Homo sapiens, UniProt P32298)
[19] = molecular target: GSK3B (Homo sapiens, UniProt P49841)
[20] = molecular target: HASPIN (Homo sapiens, UniProt Q8TF76)
[21] = molecular target: KIT (V559D, T670I) (Homo sapiens, UniProt P10721, T670I/V559D)
[22] = molecular target: LCK (Homo sapiens, UniProt P06239)
[23] = molecular target: LRRK2 (Homo sapiens, UniProt Q5S007)
[24] = molecular target: T1, MERTK (Homo sapiens, UniProt Q12866)
T1 construct: T7 phage fusion (stated for most kinases of the panel only); made in house; host or cells: T7 phage in E. coli (BL21-derived) or HEK-293 cells

[25] = molecular target: T2, NEK10 (Homo sapiens, UniProt Q6ZWH5)
T2 construct: T7 phage fusion (said for most assays); made in house

[26] = molecular target: T3, NEK4 (Homo sapiens, UniProt P51957)
T3 construct: T7 phage fusion (said for most assays); made in house

[27] = molecular target: T4, NEK7 (Homo sapiens, UniProt Q8TDX7)
T4 construct: T7 phage fusion (said for most assays); made in house

[28] = molecular target: T5, NEK9 (Homo sapiens, UniProt Q8TD19)
T5 construct: T7 phage fusion (said for most assays); made in house

[29] = molecular target: PCTK2 (Homo sapiens, UniProt Q00537)
[30] = molecular target: PDGFRB (Homo sapiens, UniProt P09619)
[31] = molecular target: PIP5K1A (Homo sapiens, UniProt Q99755)
[32] = molecular target: PKAC-beta (Homo sapiens, UniProt P22694)
[33] = molecular target: PKN1 (Homo sapiens, UniProt Q16512)
[34] = molecular target: PRKCH (Homo sapiens, UniProt P24723)
[35] = molecular target: PRKCI (Homo sapiens, UniProt P41743)
[36] = molecular target: RIOK2 (Homo sapiens, UniProt Q9BVS4)
[37] = molecular target: RIPK1 (Homo sapiens, UniProt Q13546)
[38] = molecular target: SGK (Homo sapiens, UniProt O00141)
[39] = molecular target: SGK2 (Homo sapiens, UniProt Q9HBY8)
[40] = molecular target: TNNI3K (Homo sapiens, UniProt Q59H18)

HASPIN, sequence (Q8TF76 whole entry): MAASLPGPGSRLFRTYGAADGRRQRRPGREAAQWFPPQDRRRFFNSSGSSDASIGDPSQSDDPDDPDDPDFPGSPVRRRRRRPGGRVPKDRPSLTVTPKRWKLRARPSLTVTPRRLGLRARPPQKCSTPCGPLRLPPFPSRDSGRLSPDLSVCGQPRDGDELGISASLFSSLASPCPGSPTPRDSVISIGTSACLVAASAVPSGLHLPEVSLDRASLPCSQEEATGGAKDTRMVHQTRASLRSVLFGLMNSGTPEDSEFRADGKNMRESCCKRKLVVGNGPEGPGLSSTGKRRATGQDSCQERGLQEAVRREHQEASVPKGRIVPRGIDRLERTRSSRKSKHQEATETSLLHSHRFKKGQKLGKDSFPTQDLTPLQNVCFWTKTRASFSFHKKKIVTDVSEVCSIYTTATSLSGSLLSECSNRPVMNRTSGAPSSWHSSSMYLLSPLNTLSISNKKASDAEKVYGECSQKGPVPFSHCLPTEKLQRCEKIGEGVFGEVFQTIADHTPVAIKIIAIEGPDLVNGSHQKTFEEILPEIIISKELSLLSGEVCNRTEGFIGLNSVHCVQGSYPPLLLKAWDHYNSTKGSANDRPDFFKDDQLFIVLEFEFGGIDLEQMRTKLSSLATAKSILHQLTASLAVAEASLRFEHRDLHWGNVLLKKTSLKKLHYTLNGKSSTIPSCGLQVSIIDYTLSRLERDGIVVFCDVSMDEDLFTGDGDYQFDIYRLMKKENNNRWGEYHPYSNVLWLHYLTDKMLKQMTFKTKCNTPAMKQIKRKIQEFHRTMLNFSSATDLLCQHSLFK
PDGFRB, sequence (P09619 33-1106): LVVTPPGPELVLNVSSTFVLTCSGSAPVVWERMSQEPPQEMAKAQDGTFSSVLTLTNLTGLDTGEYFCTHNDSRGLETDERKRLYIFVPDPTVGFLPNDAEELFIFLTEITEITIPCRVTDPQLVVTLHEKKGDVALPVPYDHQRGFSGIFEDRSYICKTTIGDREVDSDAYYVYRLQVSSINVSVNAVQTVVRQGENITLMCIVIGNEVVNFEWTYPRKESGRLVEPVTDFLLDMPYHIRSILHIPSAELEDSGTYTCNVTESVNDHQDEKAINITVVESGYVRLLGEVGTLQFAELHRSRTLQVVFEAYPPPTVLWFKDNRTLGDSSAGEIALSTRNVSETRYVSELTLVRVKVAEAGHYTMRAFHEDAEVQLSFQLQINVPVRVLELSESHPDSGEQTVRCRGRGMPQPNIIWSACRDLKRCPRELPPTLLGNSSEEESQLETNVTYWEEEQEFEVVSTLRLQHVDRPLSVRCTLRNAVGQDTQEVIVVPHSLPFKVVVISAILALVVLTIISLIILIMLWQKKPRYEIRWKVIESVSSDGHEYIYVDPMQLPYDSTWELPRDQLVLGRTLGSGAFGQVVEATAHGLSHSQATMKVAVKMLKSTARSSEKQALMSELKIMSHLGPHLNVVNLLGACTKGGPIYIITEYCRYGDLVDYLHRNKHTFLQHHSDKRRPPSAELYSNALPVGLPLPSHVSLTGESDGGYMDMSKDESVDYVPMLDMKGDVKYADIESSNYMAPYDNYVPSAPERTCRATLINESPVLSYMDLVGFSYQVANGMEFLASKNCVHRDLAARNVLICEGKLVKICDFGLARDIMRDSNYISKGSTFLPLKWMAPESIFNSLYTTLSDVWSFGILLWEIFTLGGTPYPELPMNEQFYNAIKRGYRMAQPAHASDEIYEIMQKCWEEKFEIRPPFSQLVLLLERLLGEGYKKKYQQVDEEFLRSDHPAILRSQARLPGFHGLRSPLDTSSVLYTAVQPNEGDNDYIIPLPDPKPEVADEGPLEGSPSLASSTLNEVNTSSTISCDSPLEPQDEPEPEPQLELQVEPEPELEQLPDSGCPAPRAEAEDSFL
ANKK1, sequence (Q8NFD2 whole entry): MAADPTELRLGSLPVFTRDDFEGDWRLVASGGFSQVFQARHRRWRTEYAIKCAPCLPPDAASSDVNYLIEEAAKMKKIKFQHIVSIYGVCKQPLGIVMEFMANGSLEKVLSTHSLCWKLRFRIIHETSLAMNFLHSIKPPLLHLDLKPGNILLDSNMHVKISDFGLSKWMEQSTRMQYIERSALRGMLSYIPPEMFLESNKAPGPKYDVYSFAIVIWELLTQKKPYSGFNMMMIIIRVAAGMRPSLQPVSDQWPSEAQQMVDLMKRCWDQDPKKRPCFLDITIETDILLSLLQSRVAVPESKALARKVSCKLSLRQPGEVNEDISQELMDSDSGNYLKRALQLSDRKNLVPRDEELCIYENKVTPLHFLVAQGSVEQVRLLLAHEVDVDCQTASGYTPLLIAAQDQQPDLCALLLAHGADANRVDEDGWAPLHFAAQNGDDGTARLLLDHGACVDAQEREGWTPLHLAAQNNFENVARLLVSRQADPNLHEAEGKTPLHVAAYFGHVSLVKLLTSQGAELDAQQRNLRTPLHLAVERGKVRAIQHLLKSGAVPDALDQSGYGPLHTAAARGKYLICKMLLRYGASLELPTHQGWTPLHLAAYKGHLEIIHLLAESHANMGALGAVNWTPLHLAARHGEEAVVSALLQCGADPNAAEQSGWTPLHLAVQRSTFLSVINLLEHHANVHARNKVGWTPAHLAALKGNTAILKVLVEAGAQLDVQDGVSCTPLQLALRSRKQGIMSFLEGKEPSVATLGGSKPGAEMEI
CAMK2D, sequence (Q13557 whole entry): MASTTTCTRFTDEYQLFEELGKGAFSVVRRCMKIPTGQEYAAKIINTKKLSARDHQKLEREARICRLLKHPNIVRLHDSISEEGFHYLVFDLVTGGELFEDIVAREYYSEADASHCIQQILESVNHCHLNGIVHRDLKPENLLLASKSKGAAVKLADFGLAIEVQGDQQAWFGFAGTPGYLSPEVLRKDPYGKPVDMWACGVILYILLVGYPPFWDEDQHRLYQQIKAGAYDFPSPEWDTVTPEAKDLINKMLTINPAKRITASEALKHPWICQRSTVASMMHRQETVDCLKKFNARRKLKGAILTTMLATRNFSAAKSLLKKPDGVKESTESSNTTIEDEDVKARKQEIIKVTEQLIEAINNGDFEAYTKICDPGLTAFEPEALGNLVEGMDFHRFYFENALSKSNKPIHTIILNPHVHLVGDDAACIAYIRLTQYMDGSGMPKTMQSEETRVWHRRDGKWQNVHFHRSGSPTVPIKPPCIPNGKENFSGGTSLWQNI
T3 sequence (P51957 whole entry, the tested form may be a part): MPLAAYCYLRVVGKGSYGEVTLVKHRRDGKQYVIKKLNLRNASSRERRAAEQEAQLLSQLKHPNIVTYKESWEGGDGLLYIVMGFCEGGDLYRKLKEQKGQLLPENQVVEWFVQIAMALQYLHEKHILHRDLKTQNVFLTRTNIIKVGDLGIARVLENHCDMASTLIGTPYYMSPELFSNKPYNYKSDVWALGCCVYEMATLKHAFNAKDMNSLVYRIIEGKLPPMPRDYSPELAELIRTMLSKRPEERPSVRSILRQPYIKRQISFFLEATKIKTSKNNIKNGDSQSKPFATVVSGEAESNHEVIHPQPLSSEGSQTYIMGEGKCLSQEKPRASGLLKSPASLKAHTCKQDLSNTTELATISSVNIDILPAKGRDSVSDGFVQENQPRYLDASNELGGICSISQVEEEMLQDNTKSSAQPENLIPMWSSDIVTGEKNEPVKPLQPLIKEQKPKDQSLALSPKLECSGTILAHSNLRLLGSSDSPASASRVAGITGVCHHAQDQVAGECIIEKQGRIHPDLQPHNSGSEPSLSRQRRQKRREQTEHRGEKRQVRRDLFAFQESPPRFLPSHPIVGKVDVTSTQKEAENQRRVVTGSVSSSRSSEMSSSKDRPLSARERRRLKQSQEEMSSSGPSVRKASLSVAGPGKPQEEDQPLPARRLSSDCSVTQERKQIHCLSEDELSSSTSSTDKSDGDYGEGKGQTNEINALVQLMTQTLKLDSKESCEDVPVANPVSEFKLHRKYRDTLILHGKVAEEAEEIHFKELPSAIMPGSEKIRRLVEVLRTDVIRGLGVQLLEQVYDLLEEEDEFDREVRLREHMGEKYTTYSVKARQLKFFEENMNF
CLK4, sequence (Q9HAZ1 whole entry): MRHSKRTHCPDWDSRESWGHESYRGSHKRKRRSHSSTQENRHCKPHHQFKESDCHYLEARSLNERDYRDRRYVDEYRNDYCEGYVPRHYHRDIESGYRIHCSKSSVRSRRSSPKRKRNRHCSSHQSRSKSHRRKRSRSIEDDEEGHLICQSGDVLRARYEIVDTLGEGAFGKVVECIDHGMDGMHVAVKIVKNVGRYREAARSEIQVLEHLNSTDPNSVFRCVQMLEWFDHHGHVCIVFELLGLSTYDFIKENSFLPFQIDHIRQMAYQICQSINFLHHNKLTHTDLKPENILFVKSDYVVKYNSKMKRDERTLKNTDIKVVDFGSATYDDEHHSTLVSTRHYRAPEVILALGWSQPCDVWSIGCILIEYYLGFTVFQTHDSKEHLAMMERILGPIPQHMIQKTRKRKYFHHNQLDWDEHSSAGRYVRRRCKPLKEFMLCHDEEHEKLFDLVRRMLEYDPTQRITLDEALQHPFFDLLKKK
GRK4, sequence (P32298 whole entry): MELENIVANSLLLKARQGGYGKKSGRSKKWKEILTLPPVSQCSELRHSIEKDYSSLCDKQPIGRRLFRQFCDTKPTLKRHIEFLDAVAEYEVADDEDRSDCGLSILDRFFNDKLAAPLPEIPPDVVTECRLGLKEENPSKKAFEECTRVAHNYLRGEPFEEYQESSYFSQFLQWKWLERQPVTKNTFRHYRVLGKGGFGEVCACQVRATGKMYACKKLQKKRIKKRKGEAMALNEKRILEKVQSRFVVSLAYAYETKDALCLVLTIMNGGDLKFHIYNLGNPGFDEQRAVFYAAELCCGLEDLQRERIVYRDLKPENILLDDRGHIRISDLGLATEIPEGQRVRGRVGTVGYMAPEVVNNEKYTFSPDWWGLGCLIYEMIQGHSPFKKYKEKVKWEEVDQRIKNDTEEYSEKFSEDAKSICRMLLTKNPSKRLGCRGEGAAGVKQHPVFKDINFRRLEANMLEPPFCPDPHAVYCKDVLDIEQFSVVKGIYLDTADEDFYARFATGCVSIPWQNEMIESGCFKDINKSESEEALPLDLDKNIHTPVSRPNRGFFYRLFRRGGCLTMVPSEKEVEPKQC

Which results are given for `Cc1cc(Oc2cc(NC(=O)C3CC3)ncn2)ccc1NC(=O)Nc1ccc(Cl)c(C(F)(F)F)c1` [CBT-102]?
remaining activity at 1 µM [1]: 2.3%; remaining activity at 1 µM [2]: 95%; remaining activity at 1 µM [3]: 100%; remaining activity at 1 µM [4]: 100%; remaining activity at 1 µM [5]: 86%; remaining activity at 1 µM [6]: 61%; remaining activity at 1 µM [7]: 93%; remaining activity at 1 µM [8]: 90%; remaining activity at 1 µM [9]: 14%; remaining activity at 1 µM [10]: 97%; remaining activity at 1 µM [11]: 95%; remaining activity at 1 µM [12]: 100%; remaining activity at 1 µM [13]: 0.3%; remaining activity at 1 µM [14]: 100%; remaining activity at 1 µM [15]: 44%; remaining activity at 1 µM [16]: 14%; remaining activity at 1 µM [17]: 0.05%; remaining activity at 1 µM [18]: 100%; remaining activity at 1 µM [19]: 42%; remaining activity at 1 µM [20]: 81%; remaining activity at 1 µM [21]: 0.3%; remaining activity at 1 µM [22]: 15%; remaining activity at 1 µM [23]: 73%; remaining activity at 1 µM [24]: 23%; remaining activity at 1 µM [25]: 77%; remaining activity at 1 µM [26]: 93%; remaining activity at 1 µM [27]: 88%; remaining activity at 1 µM [28]: 96%; remaining activity at 1 µM [29]: 44%; remaining activity at 1 µM [30]: 0%; remaining activity at 1 µM [31]: 100%; remaining activity at 1 µM [32]: 95%; remaining activity at 1 µM [33]: 100%; remaining activity at 1 µM [34]: 100%; remaining activity at 1 µM [35]: 74%; remaining activity at 1 µM [36]: 92%; remaining activity at 1 µM [37]: 95%; remaining activity at 1 µM [38]: 100%; remaining activity at 1 µM [39]: 92%; remaining activity at 1 µM [40]: 31%
